Measured values published in patent US10597388B2, “Pyridazinone herbicides” (FMC CORPORATION, priority 2014, dated 2020).

Key:
Experiment in all cases: Test D controlled growth environment herbicide test, pre- and postemergence
Type in all cases: in vivo
[1] = test system: canarygrass (Phalaris minor)
Method in brief: (§1)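 Rating is visual, 0–100 scale (100 = complete control), made against untreated plants 14–21 d after treatment in controlled growth conditions. Postemergence sprays went onto 1- to 4-leaf plants in peat medium; preemergence sprays onto silt loam after sowing; formulation included a surfactant.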

[2] = test system: radish, wild (wild radish, Raphanus raphanistrum)
Method in brief: as §1

[3] = test system: mustard, wild (wild mustard, Sinapis arvensis)
Method in brief: as §1

[4] = test system: field violet (Viola arvensis)
Method in brief: as §1

[5] = test system: pigweed (Amaranthus retroflexus)
Method in brief: as §1

[6] = test system: galium (catchweed bedstraw, Galium aparine)
Method in brief: as §1

[7] = test system: Russian thistle (Salsola kali)
Method in brief: as §1

[8] = test system: oilseed rape (Brassica napus)
Method in brief: as §1

[9] = test system: speedwell (bird's-eye speedwell, Veronica persica)
Method in brief: as §1

kochia (Kochia scoparia) = test system: kochia (Kochia scoparia)
Method in brief: as §1

[10] = test system: windgrass (Apera spica-venti)
Method in brief: as §1

[11] = test system: buckwheat, wild (wild buckwheat, Polygonum convolvulus)
Method in brief: as §1

[12] = test system: bluegrass (annual bluegrass, Poa annua)
Method in brief: as §1

[13] = Postemergence, 31 g ai/ha, scale 0 to 100 (0 no effect, 100 complete control)
[14] = Postemergence, 125 g ai/ha, visual rating on scale 0 (no effect) to 100 (complete control), 14 to 21 d
[15] = Postemergence, 250 g ai/ha, scale 0 to 100 (0 no effect, 100 complete control)
[16] = Preemergence, 62 g ai/ha, scale 0 to 100 (0 no effect, 100 complete control)
[17] = Preemergence, 125 g ai/ha, scale 0 to 100 (0 no effect, 100 complete control)
[18] = Preemergence, 250 g ai/ha, scale 0 to 100 (0 no effect, 100 complete control)
[19] = postemergence, 62 g ai/ha, scale 0 to 100, 0 no effect, 100 complete control

## COC(=O)Oc1c(C)nn(C)c(=O)c1-c1c(C)sc2c(C)cc(C)cc12 [Compound 81]
[1]; [13]
  Canarygrass plant response rating: 75
[1]; [14]
  Plant response rating, Canarygrass: 95
[1]; [15]
  Plant response rating, Canarygrass: 100
[1]; Preemergence, 31 g ai/ha
  Plant response rating (scale of 0 to 100), Canarygrass: 75
[1]; [16]
  Plant response rating, Canarygrass: 65
[1]; [17]
  Plant response rating, Canarygrass: 95
[1]; [18]
  Plant response rating, Canarygrass: 100
[1]; [19]
  Plant response rating, Canarygrass: 85
[2]; [13]
  Radish, Wild plant response rating: 75
[2]; [14]
  Plant response rating, Radish, Wild: 95
[2]; [15]
  Plant response rating, Radish, Wild: 100
[2]; Preemergence, 31 g ai/ha
  Plant response rating (scale of 0 to 100), Radish, Wild: 0
[2]; [16]
  Plant response rating, Radish, Wild: 50
[2]; [19]
  Plant response rating, Radish, Wild: 90
[3]; [13]
  Mustard, Wild plant response rating: 50
[3]; [14]
  Plant response rating, Mustard, Wild: 60
[3]; [15]
  Plant response rating, Mustard, Wild: 80
[3]; Preemergence, 31 g ai/ha
  Plant response rating (scale of 0 to 100), Mustard, Wild: 0
[3]; [16]
  Plant response rating, Mustard, Wild: 0
[3]; [17]
  Plant response rating, Mustard, Wild: 0
[3]; [18]
  Plant response rating, Mustard, Wild: 50
[3]; [19]
  Plant response rating, Mustard, Wild: 60
[4]; [13]
  Field Violet plant response rating: 75
[4]; [14]
  Plant response rating, Field Violet: 100
[4]; [15]
  Plant response rating, Field Violet: 100
[4]; Preemergence, 31 g ai/ha
  Plant response rating (scale of 0 to 100), Field Violet: 75
[4]; [16]
  Plant response rating, Field Violet: 80
[4]; [17]
  Plant response rating, Field Violet: 100
[4]; [18]
  Plant response rating, Field Violet: 95
[4]; [19]
  Plant response rating, Field Violet: 85
[5]; [13]
  Pigweed plant response rating: 100
[5]; [14]
  Plant response rating, Pigweed: 100
[5]; [15]
  Plant response rating, Pigweed: 100
[5]; Preemergence, 31 g ai/ha
  Plant response rating (scale of 0 to 100), Pigweed: 95
[5]; [16]
  Plant response rating, Pigweed: 100
[5]; [17]
  Plant response rating, Pigweed: 100
[5]; [18]
  Plant response rating, Pigweed: 100
[5]; [19]
  Plant response rating, Pigweed: 100
[6]; [13]
  Galium plant response rating: 100
[6]; [14]
  Plant response rating, Galium: 100
[6]; [15]
  Plant response rating, Galium: 100
[6]; Preemergence, 31 g ai/ha
  Plant response rating (scale of 0 to 100), Galium: 25
[6]; [16]
  Plant response rating, Galium: 65
[6]; [17]
  Plant response rating, Galium: 85
[6]; [18]
  Plant response rating, Galium: 95
[6]; [19]
  Plant response rating, Galium: 100
[7]; [13]
  Russian Thistle plant response rating: 75
[7]; [14]
  Plant response rating, Russian Thistle: 90
[7]; [15]
  Plant response rating, Russian Thistle: 90
[7]; Preemergence, 31 g ai/ha
  Plant response rating (scale of 0 to 100), Russian Thistle: 0
[7]; [16]
  Plant response rating, Russian Thistle: 0
[7]; [17]
  Plant response rating, Russian Thistle: 15
[7]; [18]
  Plant response rating, Russian Thistle: 35
[7]; [19]
  Plant response rating, Russian Thistle: 85
[8]; [13]
  Oilseed Rape plant response rating: 70
[8]; [14]
  Plant response rating, Oilseed Rape: 75
[8]; [15]
  Plant response rating, Oilseed Rape: 85
[8]; Preemergence, 31 g ai/ha
  Plant response rating (scale of 0 to 100), Oilseed Rape: 0
[8]; [16]
  Plant response rating, Oilseed Rape: 0
[8]; [17]
  Plant response rating, Oilseed Rape: 50
[8]; [18]
  Plant response rating, Oilseed Rape: 100
[8]; [19]
  Plant response rating, Oilseed Rape: 70
[9]; [13]
  Speedwell plant response rating: 75
[9]; [14]
  Plant response rating, Speedwell: 95
[9]; [15]
  Plant response rating, Speedwell: 100
[9]; Preemergence, 31 g ai/ha
  Plant response rating (scale of 0 to 100), Speedwell: 55
[9]; [16]
  Plant response rating, Speedwell: 60
[9]; [17]
  Plant response rating, Speedwell: 100
[9]; [18]
  Plant response rating, Speedwell: 100
[9]; [19]
  Plant response rating, Speedwell: 80
Kochia (Kochia scoparia); [13]
  Kochia plant response rating: 60
Kochia (Kochia scoparia); [14]
  Plant response rating, Kochia: 90
Kochia (Kochia scoparia); [15]
  Plant response rating, Kochia: 95
Kochia (Kochia scoparia); Preemergence, 31 g ai/ha
  Plant response rating (scale of 0 to 100), Kochia: 0
Kochia (Kochia scoparia); [16]
  Plant response rating, Kochia: 0
Kochia (Kochia scoparia); [17]
  Plant response rating, Kochia: 25
Kochia (Kochia scoparia); [18]
  Plant response rating, Kochia: 15
Kochia (Kochia scoparia); [19]
  Plant response rating, Kochia: 85
[10]; [13]
  Windgrass plant response rating: 70
[10]; [14]
  Plant response rating, Windgrass: 90
[10]; [15]
  Plant response rating, Windgrass: 95
[10]; Preemergence, 31 g ai/ha
  Plant response rating (scale of 0 to 100), Windgrass: 60
[10]; [16]
  Plant response rating, Windgrass: 75
[10]; [17]
  Plant response rating, Windgrass: 90
[10]; [18]
  Plant response rating, Windgrass: 100
[10]; [19]
  Plant response rating, Windgrass: 80
[11]; [13]
  Buckwheat, Wild plant response rating: 100
[11]; [14]
  Plant response rating, Buckwheat, Wild: 100
[11]; [15]
  Plant response rating, Buckwheat, Wild: 100
[11]; Preemergence, 31 g ai/ha
  Plant response rating (scale of 0 to 100), Buckwheat, Wild: 15
[11]; [16]
  Plant response rating, Buckwheat, Wild: 15
[11]; [17]
  Plant response rating, Buckwheat, Wild: 0
[11]; [18]
  Plant response rating, Buckwheat, Wild: 15
[11]; [19]
  Plant response rating, Buckwheat, Wild: 100
[12]; [13]
  Bluegrass plant response rating: 5
[12]; [14]
  Plant response rating, Bluegrass: 30
[12]; [15]
  Plant response rating, Bluegrass: 40
[12]; Preemergence, 31 g ai/ha
  Plant response rating (scale of 0 to 100), Bluegrass: 0
[12]; [16]
  Plant response rating, Bluegrass: 10
[12]; [17]
  Plant response rating, Bluegrass: 20
[12]; [18]
  Plant response rating, Bluegrass: 60
[12]; [19]
  Plant response rating, Bluegrass: 20
